Patent US20100226888A1, “Ethanol Enhances the Complete Replication of Hepatitis C Virus: the Role of Acetaldehyde” (priority 2009, published 2010)
Where two headings read alike, the source gives them in different places.

How the values were obtained:
JFH1 HCV (genotype 2a) = assay type: cell-based, hepatitis C virus; conditions: for intracellular JFH1 HCV RNA levels: 48 hrs
[1] = system: SgJFH1-Luc subgenomic HCV replicon (genotype 2a); assay type: cell-based, hepatitis C virus
Source text: (§1) The genotype 2a HCV constructs, pJFH1 (produces infectious virus particles), replicative-null pJFH1-GND, and subgenomic pSgJFH1-Luc (contains a luciferase reporter gene), are described elsewhere (23, 24). Subgenomic HCV replicons are bicistronic constructs that express only the nonstructural proteins of HCV under the control of encephalocarditis virus IRES; neomycin resistance or firefly luciferase gene is under the control of the HCV IRES (15, 22, 24). These replicons support HCV RNA replication but no virus is formed in cell culture. Huh7 cell clones (SgPC2 cells, Clone B) supporting continuous replication of subgenomic HCV replicon of genotype 1b (Con1 sequence) were also used (17, 22).
After various treatments, SgJFH1 Luc RNA-transfected cells were lysed with 1× Reporter Lysis Buffer, and the luciferase activity was determined using Luciferase Reporter Assay Kit (Promega Corp.) (24). Luciferase activities were normalized by total protein content, determined with bicinchoninic acid (BCA) assay kit from Pierce.
To test whether the JFH1 RNA replication was also affected by ethanol, Huh7 cells were transfected with JFH1 SgJFH1-Luc RNA and exposed the cells to ethanol for 48 hours. Then, HCV replication was monitored by measuring the firefly luciferase activity (24).

intracellular GSH = test: Intracellular GSH content in Huh7 cells; assay type: cell-based, human
Source text: Hepatic ethanol, particularly CYP2E1-mediated, metabolism is known to generate ROS (31). […] First, to examine the effects of endogenously generated ROS, L-buthionine S,R-sulfoximine (BSO) was used. BSO depletes glutathione (GSH), a major endogenous antioxidant, by inhibiting its de novo synthesis and therefore, would amplify the effects of endogenous ROS, generated during normal cellular metabolism and in response to HCV (5). BSO decreases intracellular GSH content by approximately 80±12% in Huh7 cells (P<0.05).

JFH1 virus = test: HCV RNA in naive Huh7 or Huh7.5 cells inoculated with JFH1 virus-containing medium; assay type: cell-based, hepatitis C virus
Method: (§2) The in vitro transcription, and transfection of HCV RNA, and Huh7 human hepatoma cell culture were performed as previously described (17). For experiments involving stable clones, cells were cultured in medium supplemented with 0.4-0.5 mg/mL G418, and G418 was removed from cell culture medium one day prior to cell treatments, which were performed as described in Results. For the in vitro infectivity assays, 2 ml of the extracellular medium from JFH1 RNA-transfected cells was used to inoculate naive Huh7 or Huh7.5 cells with 3 ml of fresh medium, as described (23, 25). Treatments were initiated 24 hours after infection and the cells were harvested after another 24 or 48 hrs.
The total intracellular RNA was obtained from cells using Trizol (Invitrogen). To obtain extracellular HCV RNA, cell culture medium samples were first treated with RNase A (100 μg/ml) for 30 min at room temperature, then RNA was extracted using Trizol LS and glycogen as a carrier. HCV RNA was quantified by qRT-PCR as described (17, 23). For JFH1, the primer sequences were 5′ […] 3′ (nt 146 to 164; forward, SEQ ID NO.: 1), and 5′ […] 3′ (nt 277 to 295; reverse, SEQ ID NO.: 2), and the sequence of the fluorogenic probe, labeled with 6-FAM and TAMRA (Biosearch Technologies, Inc.), was 5′ […] 3′ (nt 168 to 188, SEQ ID NO.: 3). The primer and probe sequences for qRT-PCR analysis of Con1 RNA's were described previously (17). Standard curves were generated using in vitro-transcribed HCV RNA's. Intracellular HCV RNA levels were normalized by 18 S rRNA or GAPDH mRNA.

[2] = system: Con1 subgenomic HCV replicon (genotype 1b); test: Con1 subgenomic replicon HCV RNA in SgPC2 cells (Northern blot); assay type: cell-based, hepatitis C virus; conditions: 0.1 to 1% ethanol, 24 hrs
Source text: as §1, §2
(§3) Intracellular RNA extraction and northern blots were carried out, as described (16, 17). DNA probes were prepared from nucleotides (“nt.”) 4128-8273 or 358-2816 of JFH1, generated with ScaI and ApaL I, respectively, or nt. 3669 to 6016 of the Con1 subgenomic replicons. Images were quantified by densitometry, using Optiquant Cyclone 4.00 (Perkin Elmer), and data were normalized by glyceraldehyde 3-phosphate dehydrogenase (GAPDH) mRNA content.

[3] = system: Con1 HCV subgenomic replicon; test: Con1 subgenomic replicon HCV RNA in Clone B cells; assay type: cell-based, hepatitis C virus; conditions: 24 hrs, response compared with SgPC2 cells
Source text: as §1, §3

[4] = system: HCV RNA replication complex (Con1 strain); conditions: cells treated with ethanol for 5 hrs
Method: (§4) In vitro replication assay was carried out according to the modified method of Ali et al., as previously described (16, 17, 26). Briefly, cytoplasmic lysates were prepared, and the replication was allowed to proceed for 1 hr at 30° C. in the presence of α-^32P-CTP and actinomycin D. Then, RNA products were analyzed on a 1% formaldehyde agarose gel, which was subsequently analyzed, using Optiquant Cyclone 4.00 (Perkin Elmer).
(§5) JFH1-transfected cells were exposed to ethanol for 5 hrs and then, the cytoplasmic lysates, containing the HCV replication complex, were isolated. Then, the in vitro RNA replication assay was performed in the presence of α-^32P-labeled CTP and actinomycin D, as previously described (17). JFH1 GND cell lysates were used as a negative control.

[5] = system: HCV RNA replication complex (JFH1)
Method: as §4, §5

HCV IRES = conditions: ethanol, data not shown
Method: as §5

CYP2E1 = conditions: daily 0.2% (v/v) ethanol for 48 hrs, JFH1 cells
Source text: Cells were sonicated in Laemmli buffer, and proteins were separated on 7-20% Tris-glycine gel (Invitrogen) or 12.5% SDS-polyacrylamide gel and western blotted, using mouse monoclonal anti-NS5A (Biodesign, Inc.), goat anti-actin, and the corresponding horseradish peroxidase-conjugated secondary antibodies (Santa Cruz Laboratories) with an ECL Plus kit (Amersham Biosciences). Images were obtained and quantified, using 152000R (Kodak).

NADH/NAD+ ratio = test: NADH/NAD+ enzymatic NADH recycling assay; assay type: cell-based, human
Method: NADH and NAD+ levels were determined by enzymatic NADH recycling assay, using the NAD+/NADH Quantification Kit from Biovision, per manufacturers recommendations with an optional filtration step that used Microcon YM-10 (Millipore). […] The data were normalized by total protein content, determined with BCA assay kit from Pierce.

[6] = system: Huh7 human hepatoma cells; conditions: data not shown
Method: NADH and NAD+ levels were determined by enzymatic NADH recycling assay, using the NAD+/NADH Quantification Kit from Biovision, per manufacturers recommendations with an optional filtration step that used Microcon YM-10 (Millipore). Total ATP content was measured using Somatic Cell ATP Assay Kit from Sigma-Aldrich. The data were normalized by total protein content, determined with BCA assay kit from Pierce.
To examine whether ethanol increased the complete replication of HCV, positive-sense genomic JFH1 RNA was produced by in vitro transcription, using T7 RNA polymerase, and transfected into Huh7 human hepatoma cells. Then, the transfected cells were exposed to 0-1.0% (v/v; 0-172 mM) ethanol once daily with a change of medium each day for 48 hrs. Then, the cells and the cell culture medium were harvested and analyzed for intracellular and RNase A-resistant extracellular HCV RNA's by a combination of Northern blots and qRT-PCR.

[7] = system: intracellular cholesterol; test: Total intracellular cholesterol content in SgPC2 cells; assay type: cell-based, human; conditions: 24 h
Method: FIG. 7. […] SgPC2 cells were treated for 24 h with (A and B) 0.2% ethanol, 5 μM acetaldehyde, 0.2% isopropyl alcohol, 2 mM acetone, 5 μM acetate±30 min pretreatment with (A) 5 μM lovastatin, 5 μM fluvastatin, (B) 5 μg/ml TOFA, 5 μg/ml cerulenin, or with (C) 2 mM β-mercaptopropionic acid (β-MPA). Then, HCV RNA levels were monitored by Northern blot and quantified by densitometry (n=3). D, SgPC2 cells, treated for 24 h with ethanol, acetaldehyde, acetone, and acetate±lovastatin, were monitored for cholesterol levels (n=3). Lovastatin was activated, as described, before use (29). *, indicates statistically significant difference for indicated sample sizes (p<0.05)

CCCCS(=N)(=O)CCC(N)C(=O)O [BSO, L-buthionine S,R-sulfoximine]
extracellular JFH1 RNA levels (JFH1 HCV (genotype 2a); BSO, 24 hrs): significantly decreased | intracellular JFH1 RNA levels (JFH1 HCV (genotype 2a); BSO, 24 hrs): significantly decreased | subgenomic JFH1 RNA replication ([1]; BSO alone or with 0.25 mU/mL GO + glucose, 24 hr): suppressed | decrease of intracellular GSH content (intracellular GSH): approximately 80±12%

CCO [ethanol]
intracellular JFH1 HCV RNA levels (JFH1 HCV (genotype 2a); 0.2% (v/v) ethanol once daily): 237±40 % of untreated controls | intracellular JFH1 HCV RNA levels (JFH1 HCV (genotype 2a); 0.5% (v/v) ethanol once daily): 305±61 % of untreated controls | extracellular HCV RNA (virus secretion) (JFH1 HCV (genotype 2a); ethanol treatment 48 hrs, RNase A-resistant RNA in medium): significantly elevated | HCV replication in RIG-1-defective Huh7.5 cells (JFH1 virus; FIG. 5, also data not shown): increase | HCV RNA in Huh7 cells infected with cell culture-generated JFH1 virion (JFH1 virus; ethanol treatment 48 hrs): increased | luciferase activity (JFH1 RNA genome replication) [1]: increased | genotype 1b HCV RNA [2]: significant increases | HCV RNA in Clone B cells [3]: responded similarly | in vitro replication rate of Con1 strain [4]: accelerated | rate of HCV RNA replication in vitro ([5]; cells exposed to ethanol for 5 hrs): significantly increased | rate of HCV RNA replication in vitro ([5]; cells exposed to ethanol for ½, 1, or 3 hrs, data not shown): no significant increase | HCV IRES activity (HCV IRES): did not increase | CYP2E1 expression (CYP2E1): enhanced | NADH/NAD+ ratio (NADH/NAD+ ratio; SgPC2 cells, 3 h, 0.2% ethanol, 5 μM acetaldehyde, 5 μM acetate, 0.2% isopropyl alcohol, 2 mM acetone, 25 mM tert-butanol): increases | increase of NADH/NAD+ ratio (NADH/NAD+ ratio; ethanol, within 3 hrs): 76.2±6.1% | overall ATP levels [6]: not significantly perturbed | cytotoxicity ([6]; ethanol concentrations used, cell morphology and cellular ATP content): did not induce any cytotoxicity | total intracellular cholesterol content [7]: increased
